# Like-named read-outs stand apart in the source and are kept apart here.
# Assays:
# MC3R = molecular target: T1, MC3R (Homo sapiens, UniProt P41968); assay: Calcium mobilization, HEK-293 transiently expressing MC3R; format: cell-based
# T1 construct: expressed in transfected cells; host or cells: HEK-293, pCIneo, transient (FuGene HD)
# Description: (§1) Human MC3R (NM_019888), MC4R (NM_005912), and MC5R (NM_005913) were transiently expressed in HEK-293 cells with and without human GPR139 (KR081941) or the chimeric G-protein Gα16. All genes were cloned into pCIneo (Promega, Madison, WI, United States, #E1841). HEK-293 cells were cultured in DMEM/F12 (Gibco, Grand Island, NY, United States, #11039-021), 10% FBS (Hyclone, Logan, UT, United States, # SH300700.03), 50 units/ml penicillin and 50 μg/ml streptomycin (Mediatech, Manassas, VA, United States, #30-001-CI). Cells were seeded at 4 × 10^6 cells in 10 cm dishes and allowed to grow overnight at 37°C, 5% CO2. On the day of transfection, culture media was replaced with F12-K (Mediatech, Manassas, VA, United States, #10-025-CV), 10% FBS, 20 mM HEPES (Hyclone, Logan, UT, United States, #SH30237.01) and transfected with 15 μg DNA (10 μg MCR:5 μg pCIneo, 10 μg MCR:5 μg Gα16 or 7.5 μg MCR:7.5 μg GPR139) using FuGene HD (Promega, Madison, WI, United States, #E2311) according to manufacturer’s instructions. MC3R, MC4R, and MC5R were also transiently expressed in the following GPR139 stably expressing cell lines using the FuGENE HD method: HEK-293 GPR139 clone#33, CHO-TREx GPR139 clone#18, and SK-N-MC/CRE TREx GPR139 clone#35. Stable cell lines were established according to method previously described ([Liu et al., 2015]).
# (§2) Intracellular calcium mobilization was measured with the BD calcium kit (BD Bioscience, San Jose, CA, United States). The recombinant cell lines expressing MC3R, MC4R, and MC5R with and without GPR139 or Gα16 were seeded in culture media at a density of 50,000 cells/well into 96-well black/clear-bottom poly-D-lysine treated tissue culture plates. Cells were incubated overnight at 37°C and 5% CO2. Next day, culture media was removed and cells were washed with HBSS prior to dye-loading for 1 h at 37°C and 5% CO2. […] EC50s were calculated by fitting a three-parameter logistic curve using least-squares non-linear regression analysis as implemented in Graphpad Prism 7.0.
# MC3R + Gα16 = molecular target: T2, MC3R + Gα16 (Homo sapiens, UniProt P41968); assay: Calcium mobilization, HEK-293 transiently expressing MC3R + Gα16; format: cell-based
# T2 construct: expressed in transfected cells; host or cells: HEK-293, pCIneo, transient (10 μg MCR:5 μg Gα16)
# Description: as §1, §2
# MC3R + GPR139 = MC3R + GPR139 (Homo sapiens, UniProt Q6DWJ6); assay: Calcium mobilization, HEK-293 transiently expressing MC3R + GPR139; format: cell-based
# Description: Intracellular calcium mobilization was measured with the BD calcium kit (BD Bioscience, San Jose, CA, United States). The recombinant cell lines expressing MC3R, MC4R, and MC5R with and without GPR139 or Gα16 were seeded in culture media at a density of 50,000 cells/well into 96-well black/clear-bottom poly-D-lysine treated tissue culture plates. Cells were incubated overnight at 37°C and 5% CO2. Next day, culture media was removed and cells were washed with HBSS prior to dye-loading for 1 h at 37°C and 5% CO2. Agonist stimulation and intracellular calcium measurements were done on the FLIPR Tetra (Molecular Devices, Sunnyvale, CA, United States). […] EC50s were calculated by fitting a three-parameter logistic curve using least-squares non-linear regression analysis as implemented in Graphpad Prism 7.0.
# MC4R + GPR139 = MC4R + GPR139 (Homo sapiens, UniProt Q6DWJ6); assay: Calcium mobilization, HEK-293 transiently expressing MC4R + GPR139; format: cell-based
# Description: as §1
# (§3) Intracellular calcium mobilization was measured with the BD calcium kit (BD Bioscience, San Jose, CA, United States). The recombinant cell lines expressing MC3R, MC4R, and MC5R with and without GPR139 or Gα16 were seeded in culture media at a density of 50,000 cells/well into 96-well black/clear-bottom poly-D-lysine treated tissue culture plates. Cells were incubated overnight at 37°C and 5% CO2. Next day, culture media was removed and cells were washed with HBSS prior to dye-loading for 1 h at 37°C and 5% CO2. Agonist stimulation and intracellular calcium measurements were done on the FLIPR Tetra (Molecular Devices, Sunnyvale, CA, United States). For receptor inhibition analysis, antagonists (1 μM HS-024 or 10 μM JNJ-3792165) were added off-line 15 min prior to agonist addition on the Tetra. For G-protein inhibitor experiments, cells were treated with 1 μM YM-254890 for 5 min prior to agonist additions on the Tetra. […] Responses in Figure 6 were normalized to its respective agonist response without antagonist. EC50s were calculated by fitting a three-parameter logistic curve using least-squares non-linear regression analysis as implemented in Graphpad Prism 7.0.
# MC5R = molecular target: T3, MC5R (Homo sapiens, UniProt P33032); assay: Calcium mobilization, HEK-293 transiently expressing MC5R; format: cell-based; details: HEK-293 transient; read-out: Agonist potency (pEC50), MC5R (converted)
# T3 construct: expressed in transfected cells; host or cells: HEK-293, pCIneo, transient (FuGene HD)
# Description: as §1, §2
# MC5R + Gα16 = molecular target: T4, MC5R + Gα16 (Homo sapiens, UniProt P33032); assay: Calcium mobilization, HEK-293 transiently expressing MC5R + Gα16; format: cell-based; details: HEK-293 transient; read-out: Agonist potency (pEC50), MC5R + Gα16 (converted)
# T4 construct: expressed in transfected cells; host or cells: HEK-293, pCIneo, transient (10 μg MCR:5 μg Gα16)
# Description: as §1, §2
# GPR139 [1] = molecular target: T5, GPR139 (Homo sapiens, UniProt Q6DWJ6); parameters: method as in Liu et al., 2015; details: ref Liu et al., 2015; cited from earlier work
# T5 sequence (Q6DWJ6 1-353): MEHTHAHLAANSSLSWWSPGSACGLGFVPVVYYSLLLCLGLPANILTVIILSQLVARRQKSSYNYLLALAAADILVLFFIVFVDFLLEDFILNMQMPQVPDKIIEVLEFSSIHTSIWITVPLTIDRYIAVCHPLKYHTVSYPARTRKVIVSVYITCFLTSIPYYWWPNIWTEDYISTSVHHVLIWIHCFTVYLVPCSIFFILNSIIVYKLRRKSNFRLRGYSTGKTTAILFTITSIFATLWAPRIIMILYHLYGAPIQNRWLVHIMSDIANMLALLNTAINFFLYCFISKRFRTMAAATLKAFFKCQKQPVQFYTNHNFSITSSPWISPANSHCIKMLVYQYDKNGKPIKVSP
# GPR139 [2] = molecular target: T5, GPR139; assay: Calcium mobilization, HEK-293 cells stably expressing human GPR139; format: cell-based; parameters: expressed in transfected cells
# Description: as §1, §3
# GPR139 [3] = molecular target: T5, GPR139; assay: [3H]JNJ-63533054 radioligand binding assay, membranes of CHO-TREx cells stably expressing human GPR139; parameters: expressed in transfected cells; host or cells: CHO-TREx GPR139 clone#18
# Description: Reaction was terminated by filtration through GF/C filterplates pre-treated with PEI (polyethyleneimine) followed by washes with ice-cold TE buffer. Filterplates were dried in a 60°C oven followed by addition of Microscint-0. Bound radioactivity was read on a Topcount scintillation counter. […] Half-maximal inhibitory concentrations (IC50s) of test compounds were calculated by fitting a three-parameter logistic curve using least-squares non-linear regression analysis as implemented in Graphpad Prism 7.0. The Top plateau was fixed at 100 and the Bottom was fixed at 0.
# GPR139 [4] = molecular target: T5, GPR139; parameters: method as in Shehata et al. (2016); details: ref Shehata et al. (2016); cited from earlier work
# GPR139 [5] = molecular target: T5, GPR139; parameters: expressed in transfected cells; host or cells: CHO-TREx GPR139 clone#18; method as in Liu et al., 2015; details: used for Cheng-Prussoff; ref Liu et al., 2015; read-out: Kd of [3H]JNJ-63533054; cited from earlier work
# [6] = HEK-293 transient, read-out: Agonist potency (pEC50), MC3R (converted)
# [7] = HEK-293 transient, read-out: Agonist potency (pEC50), MC3R + Gα16 (converted)
# [8] = HEK-293 stable GPR139, read-out: pEC50, calcium mobilization (converted)
# [9] = 10 nM radioligand, CHO-TREx GPR139 membranes, read-out: pKi, displacement of [3H]JNJ-63533054 (converted)
# T2 sequence (P41968 whole entry): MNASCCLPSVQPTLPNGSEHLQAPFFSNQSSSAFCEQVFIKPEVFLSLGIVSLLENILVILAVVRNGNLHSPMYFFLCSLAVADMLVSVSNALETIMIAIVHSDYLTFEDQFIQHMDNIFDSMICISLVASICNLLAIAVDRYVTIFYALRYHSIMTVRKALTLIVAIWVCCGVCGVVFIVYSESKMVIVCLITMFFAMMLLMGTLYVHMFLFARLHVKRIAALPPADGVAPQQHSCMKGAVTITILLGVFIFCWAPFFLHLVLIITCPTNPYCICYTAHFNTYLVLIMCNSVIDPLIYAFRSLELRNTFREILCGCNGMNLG
# T1 sequence (P41968 whole entry): as above
# MC4R + GPR139, sequence (P32245 whole entry partner, one chain of several): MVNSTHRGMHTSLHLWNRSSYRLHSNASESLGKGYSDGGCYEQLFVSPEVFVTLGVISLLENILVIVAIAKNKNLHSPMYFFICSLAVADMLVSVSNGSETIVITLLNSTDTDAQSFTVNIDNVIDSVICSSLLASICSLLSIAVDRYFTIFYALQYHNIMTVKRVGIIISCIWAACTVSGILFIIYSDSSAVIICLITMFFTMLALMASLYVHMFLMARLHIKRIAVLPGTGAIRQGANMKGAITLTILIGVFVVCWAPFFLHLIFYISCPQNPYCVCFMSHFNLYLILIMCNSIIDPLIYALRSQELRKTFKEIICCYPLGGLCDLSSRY
# MC3R + GPR139, sequence (P41968 whole entry partner, one chain of several): as the sequence (P41968 whole entry) above
# T3 sequence (P33032 whole entry): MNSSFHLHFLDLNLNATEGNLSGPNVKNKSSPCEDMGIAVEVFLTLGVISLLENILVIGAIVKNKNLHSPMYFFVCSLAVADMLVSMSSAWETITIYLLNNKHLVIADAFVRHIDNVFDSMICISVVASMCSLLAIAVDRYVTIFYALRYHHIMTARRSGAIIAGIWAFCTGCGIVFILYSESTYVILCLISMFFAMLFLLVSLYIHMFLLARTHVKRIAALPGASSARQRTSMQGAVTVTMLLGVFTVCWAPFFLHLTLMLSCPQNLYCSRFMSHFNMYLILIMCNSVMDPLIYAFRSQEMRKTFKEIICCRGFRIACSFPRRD
# T4 sequence (P33032 whole entry): as above
Compound,EC50 (MC3R; [6]),EC50 (MC3R + Gα16; [7]),EC50 (MC3R + GPR139),"Agonist potency (pEC50), MC3R + GPR139, No antagonist (MC3R + GPR139)",EC50 (MC4R + GPR139),"Agonist potency (pEC50), MC4R + GPR139, No antagonist (MC4R + GPR139)",EC50 (MC5R),EC50 (MC5R + Gα16),EC50 (GPR139 [1]),EC50 (GPR139 [2]; [8]),Ki (GPR139 [3]; [9]),EC50 (MC3R),EC50 (MC3R + Gα16),cAMP response (GPR139 [4]),EC50 (GPR139 [2]),Ki (GPR139 [3]),Kd (GPR139 [5])
"N[C@@H](Cc1c[nH]c2ccccc12)C(=O)O [L-Trp, L-tryptophan]",> 3160 µM,> 3160 µM,87.1 µM,4.06 ± 0.06,93.3 µM,4.03 ± 0.05,> 3160 µM,> 3160 µM,30 to 300 µM,204 µM,646 µM,–,–,–,–,–,–
COc1cc(OC)cc(C(=O)NNC(=O)Nc2cccc3ccccc23)c1 [TC-O9311],–,–,0.0692 µM,7.16 ± 0.08,0.0661 µM,7.18 ± 0.08,> 10 µM,> 10 µM,–,–,–,> 10 µM,> 10 µM,unable to induce or inhibit a cAMP response,0.0776 µM,0.0891 µM,–
"C[C@H](NC(=O)CNC(=O)c1cccc(Cl)c1)c1ccccc1 [JNJ-63533054, 3-chloro-N-[2-oxo-2-[[(1S)-1-phenylethyl]amino]ethyl]benzamide]",> 10 µM,> 10 µM,0.0372 µM,7.43 ± 0.09,0.0355 µM,7.45 ± 0.09,> 10 µM,> 10 µM,–,0.0214 µM,0.0347 µM,–,–,unable to induce or inhibit a cAMP response,–,–,0.01 µM

# From PMC5863515, “Re-evaluation of Adrenocorticotropic Hormone and Melanocyte Stimulating Hormone Activation of GPR139 in Vitro” (Frontiers in Pharmacology, 2018)
